Source: US20030135023A1, “Peptide structures useful for competitive modulation of dipeptidyl peptidase IV catalysis” (priority 2001, published 2003)
Values joined by “and” are separate entries in the source; they are usually repeats but may differ in a detail not shown here. Identical values can stand only once. Like-named read-outs stand apart in the source and are kept apart here. Square brackets hold non-standard residues; d marks the D form. Peptide text beside a SMILES is read from it. Tle = CC(C)(C)[C@H](N)C(=O)O

Columns and labels:
plasma DP IV = target: T1, plasma DP IV (Rattus norvegicus, UniProt P14740); assay: Plasma DP IV activity after intravasal and oral administration in Wistar rats; assay type: in vivo; conditions: for inhibition at 100 mg/kg: rat, Wistar rats
T1 construct: The assay mixture consisted of 80 μl reagent and 20 μl plasma; from tissue; host or cells: plasma of Wistar rats
T1 sequence (P14740 37-767 limits assumed): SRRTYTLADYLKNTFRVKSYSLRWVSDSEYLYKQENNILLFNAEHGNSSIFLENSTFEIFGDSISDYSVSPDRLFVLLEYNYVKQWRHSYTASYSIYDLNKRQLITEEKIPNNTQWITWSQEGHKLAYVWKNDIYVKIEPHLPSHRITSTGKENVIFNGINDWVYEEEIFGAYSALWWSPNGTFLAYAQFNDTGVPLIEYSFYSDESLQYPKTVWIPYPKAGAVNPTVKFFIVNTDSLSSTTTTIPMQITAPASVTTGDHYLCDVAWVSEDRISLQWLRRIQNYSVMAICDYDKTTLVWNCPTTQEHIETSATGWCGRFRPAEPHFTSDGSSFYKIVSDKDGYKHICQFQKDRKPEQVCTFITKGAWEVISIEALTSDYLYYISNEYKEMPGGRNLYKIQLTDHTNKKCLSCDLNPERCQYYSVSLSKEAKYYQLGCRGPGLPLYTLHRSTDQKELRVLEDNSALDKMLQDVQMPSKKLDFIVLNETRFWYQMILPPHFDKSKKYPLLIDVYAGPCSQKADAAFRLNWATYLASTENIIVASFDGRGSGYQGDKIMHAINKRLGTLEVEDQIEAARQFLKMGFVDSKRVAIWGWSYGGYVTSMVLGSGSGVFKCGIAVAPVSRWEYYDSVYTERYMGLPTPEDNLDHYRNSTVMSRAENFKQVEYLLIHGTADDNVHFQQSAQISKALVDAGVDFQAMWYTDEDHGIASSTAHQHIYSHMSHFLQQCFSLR
Method: Rats with intact catheter function were given the test substances intravasal (intraarterial) or oral, respectively, in random order (N=3 Wistar rats in each group). As positive control, […]. isoleucine thiazolidine*fumarate were administered intravasal.
After overnight fasting, 100 μl samples of heparinized arterial blood were collected at −30, −5, and 0 min into ice-cooled Eppendorf tubes (see below). The test substances were dissolved freshly in 1.0 ml saline (0.154 mol/l) and were given at 0 min either oral via a feeding tube ([…], 75 mm; Fine Science Tools, Heidelberg, Germany) or intravasal. For the intravasal route, the catheter was immediately flushed with 30 μl saline and an additional 1 ml of saline was given orally via the feeding tube.
Arterial blood samples were taken thereafter at 5, 10 (only in a limited number of experiments), 20, 40, 60 and 120 min from the carotid catheter of the conscious unrestrained rats and were always given into ice cooled Eppendorf tubes (Eppendorf-Netheler-Hinz, Hamburg, Germany) filled with 10 μl 1 M citrate buffer pH 3.0 for prevention of further hydrolysis of tripeptides by plasma DP IV activity. Eppendorf tubes were centrifuged immediately (12000 rpm for 2 min, Hettich Zentrifuge EBA 12, Tuttlingen; Germany): The plasma fractions were store on ice until analysis or were deeply frozen at −20 ° C. until analysis.
Plasma DP IV activity: The assay mixture consisted of 80 μl reagent and 20 μl plasma. Kinetic measurements of the formation of the yellow product 4-nitroaniline were performed at 390 nm for 1 min at 30° C. after 2 min pre-incubation at the same temperature. The activity was expressed as arbitrary units [AU] and DP IV activity [mU/ml].
The absolute values of plasma DP IV activity, the relative change of plasma DP IV activity and the time and extent of maximal inhibition were calculated. Data presentation included the presentation of area under the curve (AUC), which was used for evaluation of extent of inhibition of plasma DP IV activity during the two hours of observation. AUC was calculated using the trapezoidal rule.
To compare relative changes of parameters under the conditions of different initial values of DP IV activity an uniform standardised mean (values) was set up at the beginning of the test (see Figures and Tables).
Statistical evaluations were performed with Microsoft Excel® 97. All variables are presented as mean and standard deviation (SD). Treatment groups were compared by Student's t-test, within-group changes by paired t-test. Two-tailed values of p<0.05 were considered significant.

[1] = tested on: diabetic Zucker rats (fa/fa); assay: Oral glucose tolerance test (OGTT) in diabetic Zucker rats; assay type: in vivo; conditions: 100 mg/kg b.w. p.o.
Method: N=30 male Zucker rats (fa/fa), mean age 11 weeks (5-12 weeks), mean body weight 350 g (150-400 g), were purchased from Charles River (Sulzfeld, Germany). They were kept for >12 weeks until all the fatty Zucker rats had the characteristics of manifest Diabetes mellitus.
After overnight fasting, the fatty Zucker rats were given placebo, positive control and test substance, respectively, via feeding tube orally (15 G, 75 mm; Fine Science Tools, Heidelberg, Germany) at −10 min. An oral glucose tolerance test (OGTT) with 2 g/kg b.w. glucose as a 40% solution (B. Braun Melsungen, Melsungen, Germany) was implemented at ±0 min. The glucose was administered via a second feeding tube. Arterial blood samples from the carotid catheter were collected at −30 min, −15 min, ±0 min and at 5, 10, 15, 20, 30, 40, 60, 90 and 120 min into 20 μl glass capillaries, which were placed in standard tubes filled with 1 ml solution for hemolysis (blood glucose measurement).
Blood glucose: Glucose levels were measured using the glucose oxidase procedure (Super G Glukosemeβgerät; Dr. Müller Gerätebau, Freital, Germany).

[2] = oral 100 mg/kg b.w., individual animals, 100 mg/kg

Plasma DP IV activity (plasma DP IV; oral 100 mg/kg b.w., 2.5 min, Mean): 17.25 mU/ml
Plasma DP IV activity (plasma DP IV; oral 100 mg/kg b.w., 2.5 min, Standardized Mean): 17.08 mU/ml
Plasma DP IV activity (plasma DP IV; oral 100 mg/kg b.w., 5 min, Mean): 19.15 mU/ml
Plasma DP IV activity (plasma DP IV; oral 100 mg/kg b.w., 5 min, Standardized Mean): 18.98 mU/ml
Plasma DP IV activity (plasma DP IV; oral 100 mg/kg b.w., 7.5 min, Mean): 17.25 mU/ml
Plasma DP IV activity (plasma DP IV; oral 100 mg/kg b.w., 7.5 min, Standardized Mean): 17.08 mU/ml
Plasma DP IV activity (plasma DP IV; oral 100 mg/kg b.w., 10 min, Mean): 21.64 mU/ml
Plasma DP IV activity (plasma DP IV; oral 100 mg/kg b.w., 10 min, Standardized Mean): 21.46 mU/ml
Plasma DP IV activity (plasma DP IV; oral 100 mg/kg b.w., 15 min, Mean): 21.05 mU/ml
Plasma DP IV activity (plasma DP IV; oral 100 mg/kg b.w., 15 min, Standardized Mean): 20.88 mU/ml
Plasma DP IV activity (plasma DP IV; oral 100 mg/kg b.w., 20 min, Mean): 17.98 mU/ml
Plasma DP IV activity (plasma DP IV; oral 100 mg/kg b.w., 20 min, Standardized Mean): 17.81 mU/ml
Plasma DP IV activity (plasma DP IV; oral 100 mg/kg b.w., 20 min, individual animals, 100 mg/kg): 25.00 mU/ml and 10.97 mU/ml
Plasma DP IV activity (plasma DP IV; oral 100 mg/kg b.w., 40 min, Mean): 19.30 mU/ml
Plasma DP IV activity (plasma DP IV; oral 100 mg/kg b.w., 40 min, Standardized Mean): 19.12 mU/ml
Plasma DP IV activity (plasma DP IV; oral 100 mg/kg b.w., 60 min, Mean): 19.44 mU/ml
Plasma DP IV activity (plasma DP IV; oral 100 mg/kg b.w., 60 min, Standardized Mean): 19.27 mU/ml
Plasma DP IV activity (plasma DP IV; oral 100 mg/kg b.w., 60 min, individual animals, 100 mg/kg): 21.93 mU/ml (2×) and 14.47 mU/ml
Plasma DP IV activity (plasma DP IV; oral 100 mg/kg b.w., 120 min, Mean): 20.91 mU/ml
Plasma DP IV activity (plasma DP IV; oral 100 mg/kg b.w., 120 min, Standardized Mean): 20.73 mU/ml
Plasma DP IV activity (plasma DP IV; oral 100 mg/kg b.w., 120 min, individual animals, 100 mg/kg): 16.23 mU/ml and 23.25 mU/ml (2×)
DP IV-AUC (plasma DP IV; oral 100 mg/kg b.w., Mean): −51.5 AU · min
Drop of plasma DP IV activity (plasma DP IV; oral 100 mg/kg b.w., Mean): 10.53 mU/ml
DP IV-AUC0-120 min (plasma DP IV; oral 100 mg/kg b.w., p<0.05 vs. intra-vasal): −336±162 mU·min·ml^−1
inhibition at 100 mg/kg (plasma DP IV; iv, i.v., 100 mg/kg, read-out: DPIV inhibition at tmax, i.v.): 71%
inhibition at 100 mg/kg (plasma DP IV; po, p.o., 100 mg/kg, read-out: DPIV inhibition at tmax, p.o.): 28%
SMILES: CC[C@H](C)[C@H](NC(=O)[C@@H]1CCCN1C(=O)[C@@H](N)C(C)(C)C)C(=O)O [t-butyl-Gly-Pro-Ile] (H-[Tle]-Pro-Ile-OH; N-terminus and C-terminus assumed)
Plasma DP IV activity (plasma DP IV; oral 100 mg/kg b.w., 2.5 min, individual animals, 100 mg/kg): 20.61 mU/ml and 9.21 mU/ml and 21.93 mU/ml
Plasma DP IV activity (plasma DP IV; oral 100 mg/kg b.w., 5 min, individual animals, 100 mg/kg): 23.68 mU/ml and 13.16 mU/ml and 20.61 mU/ml
Plasma DP IV activity (plasma DP IV; oral 100 mg/kg b.w., 7.5 min, individual animals, 100 mg/kg): 21.05 mU/ml and 12.28 mU/ml and 18.42 mU/ml
Plasma DP IV activity (plasma DP IV; oral 100 mg/kg b.w., 10 min, individual animals, 100 mg/kg): 21.93 mU/ml and 25.88 mU/ml and 17.11 mU/ml
Plasma DP IV activity (plasma DP IV; oral 100 mg/kg b.w., 15 min, individual animals, 100 mg/kg): 29.39 mU/ml and 15.79 mU/ml and 17.98 mU/ml
Plasma DP IV activity (plasma DP IV; oral 100 mg/kg b.w., 40 min, individual animals, 100 mg/kg): 21.49 mU/ml and 8.77 mU/ml and 27.63 mU/ml
DP IV-AUC (plasma DP IV; [2]): 155.2 AU · min and −961.1 AU · min and 651.3 AU · min
Drop of plasma DP IV activity (plasma DP IV; [2]): 6.58 mU/ml and 23.25 mU/ml and 1.75 mU/ml
Improvement of glucose tolerance ([1]; AUC test compound vs AUC Control): 14.8%
AUC test compound (glucose, OGTT) ([1]; OGTT 2 g/kg glucose): 653.2 mmol·min/L
